Consider 1 molecule from paper PMC9145741, “Bioprospecting for Thermozymes and Characterization of a Novel Lipolytic Thermozyme Belonging to the SGNH/GDSL Family of Hydrolases” (International Journal of Molecular Sciences, 2022).

For the assay, the system named is T1, LipB12_A11.
T1 construct: EcoRV fosmid fragment subcloned in pJET1.2, E. coli T7 Express; no tag mentioned; heat step, ammonium sulphate, Superdex 75
Put plainly: p-nitrophenol release at […] nm, Michaelis-Menten non-linear regression. It counts as biochemical. As to conditions: 60 °C, pH 9; 0.002-2 mM substrate.

With `CCCCCCCCCCCC(=O)Oc1ccc([N+](=O)[O-])cc1` [pNP-laurate], the Michaelis constant (Km) was determined as 17.3 ± 3.51 µM.

The Km is the concentration of substrate that gives half-maximal velocity.
